From the supplement of paper PMC11208160 come the findings set out here.

The data set in a line: recombinant UMI read abundance after kanamycin selection (control-corrected) (log10(CPM+1)); higher = more efficient recombination; extreme values may be limits of the assay; sequences stand for … in AGTGCAGAGAAAATCGGCCAGTTTTCTCTGCCTGCAGTCCGCATGCCGTGGGACCCCTTGGGTTCTAACCTGTTGCCTAGATTTATGCAGCGGACTGCCTTTCTCCCAAAGTGATAAACCGG…AGGTTGGTTTCACT; site = the 11-nt donor. In short, it runs like this:
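Reported values are log10(CPM+1) from a pooled Escherichia coli screen of donor and donor-binding-loop pairs for the IS621 bridge recombinase. Selection used IPTG (0.07 mM) plus kanamycin, against unselected plating, each in two replicates. Recombinant UMIs were amplified across the donor–target junction, sequenced, converted to CPM, averaged over replicates and scaled by control-derived factors.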
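Note: IS621 bridge recombinase in Escherichia coli cells against a fixed T5 target plasmid.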

Turning to “TCGGCTACATGGACCGGTTTTCCCGGTAATCCGTATTTGCC (site TCGGCTACTGG)”, the “recombinant UMI read abundance (log10)” value was found to be 0.

Consider “TCGGGCGCATGGACCGGTTTTCCCGGTAATCCGTATTTGTC (site TCGGGCGCTGA)”, for which the “recombinant UMI read abundance (log10)” value stood at 2.19.

For the sequence “TCGGGTGCATGGACCGGTTTTCCCGGTAATCCGTATTTGGA (site TCGGGTGCTTC)”, the “recombinant UMI read abundance (log10)” value stood at 0.157.

Consider “TCGGTTACATGGACCGGTTTTCCCGGTAATCCGTATTTGTT (site TCGGTTACTAA)”, for which the “recombinant UMI read abundance (log10)” value came to 0.835.

Regarding “TCGTACTCATGGACCGGTTTTCCCGGTAATCCGTATTTGCA (site TCATACTCTTG)”, the “recombinant UMI read abundance (log10)” value amounted to 2.44.

Regarding “TCGTACTCATGGACCGGTTTTCCCGGTAATCCGTATTTGCA (site TCCTACTCTTG)”, the “recombinant UMI read abundance (log10)” value came out at 2.28.

Consider “TCGTACTCATGGACCGGTTTTCCCGGTAATCCGTATTTGCA (site TCGTACTCTTG)”, for which the “recombinant UMI read abundance (log10)” value is 2.38.

On to “TCGTACTCATGGACCGGTTTTCCCGGTAATCCGTATTTGCA (site TCTTACTCTTG)”, for which the “recombinant UMI read abundance (log10)” value amounted to 2.29.

“TCGTCATCATGGACCGGTTTTCCCGGTAATCCGTATTTGAC (site TCGTCATCTGT)”: the “recombinant UMI read abundance (log10)” value stood at 0.

“TCGTCGCCATGGACCGGTTTTCCCGGTAATCCGTATTTGCA (site TCGTCGCCTTG)”: the “recombinant UMI read abundance (log10)” value was 0.00504.

With “TCGTTAGCATGGACCGGTTTTCCCGGTAATCCGTATTTGTG (site ACGTTAGCTCA)”, the “recombinant UMI read abundance (log10)” value turned out to be 0.00928.

Take “TCGTTAGCATGGACCGGTTTTCCCGGTAATCCGTATTTGTG (site CCGTTAGCTCA)”: the “recombinant UMI read abundance (log10)” value worked out at 0.

Consider “TCGTTAGCATGGACCGGTTTTCCCGGTAATCCGTATTTGTG (site GCGTTAGCTCA)”, for which the “recombinant UMI read abundance (log10)” value was 0.109.

With “TCGTTAGCATGGACCGGTTTTCCCGGTAATCCGTATTTGTG (site TCGTTAGCTCA)”, the “recombinant UMI read abundance (log10)” value is 0.255.

With “TCGTTGTCATGGACCGGTTTTCCCGGTAATCCGTATTTGAA (site TCGTTGTCTTT)”, the “recombinant UMI read abundance (log10)” value came out at 0.876.

Regarding “TCGTTGTCATGGACCGGTTTTCCCGGTAATCCGTATTTGTC (site TCGTTGTCTGA)”, the “recombinant UMI read abundance (log10)” value is 0.41.

Consider “TCGTTTACATGGACCGGTTTTCCCGGTAATCCGTATTTGCT (site ACGTTTACTAG)”, for which the “recombinant UMI read abundance (log10)” value amounted to 0.

In the case of “TCGTTTACATGGACCGGTTTTCCCGGTAATCCGTATTTGCT (site CCGTTTACTAG)”, the “recombinant UMI read abundance (log10)” value was determined as 0.

“TCGTTTACATGGACCGGTTTTCCCGGTAATCCGTATTTGCT (site GCGTTTACTAG)”: the “recombinant UMI read abundance (log10)” value came out at 0.

“TCGTTTACATGGACCGGTTTTCCCGGTAATCCGTATTTGCT (site TCGTTTACTAG)”: the “recombinant UMI read abundance (log10)” value was determined as 1.68.

In the case of “TCTAACACATGGACCGGTTTTCCCGGTAATCCGTATTTGTC (site TCTAACACTGA)”, the “recombinant UMI read abundance (log10)” value is 0.

Turning to “TCTAATACATGGACCGGTTTTCCCGGTAATCCGTATTTGGC (site ACTAATACTGC)”, the “recombinant UMI read abundance (log10)” value is 0.

With “TCTAATACATGGACCGGTTTTCCCGGTAATCCGTATTTGGC (site CCTAATACTGC)”, the “recombinant UMI read abundance (log10)” value is 0.

“TCTAATACATGGACCGGTTTTCCCGGTAATCCGTATTTGGC (site GCTAATACTGC)”: the “recombinant UMI read abundance (log10)” value came to 0.

On to “TCTAATACATGGACCGGTTTTCCCGGTAATCCGTATTTGGC (site TCTAATACTGC)”, for which the “recombinant UMI read abundance (log10)” value was determined as 0.

On to “TCTAATACATGGACCGGTTTTCCCGGTAATCCGTATTTGGT (site TCTAATACTAC)”, for which the “recombinant UMI read abundance (log10)” value was 0.0331.

With “TCTAATTCATGGACCGGTTTTCCCGGTAATCCGTATTTGCC (site TCAAATTCTGG)”, the “recombinant UMI read abundance (log10)” value is 0.

As to “TCTAATTCATGGACCGGTTTTCCCGGTAATCCGTATTTGCC (site TCCAATTCTGG)”, the “recombinant UMI read abundance (log10)” value was found to be 0.

As to “TCTAATTCATGGACCGGTTTTCCCGGTAATCCGTATTTGCC (site TCGAATTCTGG)”, the “recombinant UMI read abundance (log10)” value was found to be 0.

For the sequence “TCTAATTCATGGACCGGTTTTCCCGGTAATCCGTATTTGCC (site TCTAATTCTGG)”, the “recombinant UMI read abundance (log10)” value was determined as 0.

Consider “TCTACCGCATGGACCGGTTTTCCCGGTAATCCGTATTTGCG (site TCAACCGCTCG)”, for which the “recombinant UMI read abundance (log10)” value is 0.00715.

For the sequence “TCTACCGCATGGACCGGTTTTCCCGGTAATCCGTATTTGCG (site TCCACCGCTCG)”, the “recombinant UMI read abundance (log10)” value came out at 0.0035.

Consider “TCTACCGCATGGACCGGTTTTCCCGGTAATCCGTATTTGCG (site TCGACCGCTCG)”, for which the “recombinant UMI read abundance (log10)” value was 0.0889.

In the case of “TCTACCGCATGGACCGGTTTTCCCGGTAATCCGTATTTGCG (site TCTACCGCTCG)”, the “recombinant UMI read abundance (log10)” value came to 0.0133.

For “TCTAGAACATGGACCGGTTTTCCCGGTAATCCGTATTTGTC (site TCTAGAACTGA)”, the “recombinant UMI read abundance (log10)” value came to 0.

In the case of “TCTAGGCCATGGACCGGTTTTCCCGGTAATCCGTATTTGGA (site TCTAGGCCTTC)”, the “recombinant UMI read abundance (log10)” value worked out at 0.0125.

“TCTAGTGCATGGACCGGTTTTCCCGGTAATCCGTATTTGGT (site ACTAGTGCTAC)”: the “recombinant UMI read abundance (log10)” value was 0.0111.

For the sequence “TCTAGTGCATGGACCGGTTTTCCCGGTAATCCGTATTTGGT (site CCTAGTGCTAC)”, the “recombinant UMI read abundance (log10)” value turned out to be 0.229.

On to “TCTAGTGCATGGACCGGTTTTCCCGGTAATCCGTATTTGGT (site GCTAGTGCTAC)”, for which the “recombinant UMI read abundance (log10)” value was 0.

For “TCTAGTGCATGGACCGGTTTTCCCGGTAATCCGTATTTGGT (site TCTAGTGCTAC)”, the “recombinant UMI read abundance (log10)” value stood at 0.0256.

For “TCTATAACATGGACCGGTTTTCCCGGTAATCCGTATTTGGG (site TCTATAACTCC)”, the “recombinant UMI read abundance (log10)” value worked out at 0.0262.

For “TCTATAGCATGGACCGGTTTTCCCGGTAATCCGTATTTGAC (site TCTATAGCTGT)”, the “recombinant UMI read abundance (log10)” value came out at 0.

On to “TCTGAAGCATGGACCGGTTTTCCCGGTAATCCGTATTTGGT (site TCTGAAGCTAC)”, for which the “recombinant UMI read abundance (log10)” value came to 0.00288.

As for “TCTGAATCATGGACCGGTTTTCCCGGTAATCCGTATTTGAC (site TCTGAATCTGT)”, the “recombinant UMI read abundance (log10)” value worked out at 0.

On to “TCTGCGGCATGGACCGGTTTTCCCGGTAATCCGTATTTGAT (site TCTGCGGCTAT)”, for which the “recombinant UMI read abundance (log10)” value came to 0.0332.

Consider “TCTGCGGCATGGACCGGTTTTCCCGGTAATCCGTATTTGTT (site TCTGCGGCTAA)”, for which the “recombinant UMI read abundance (log10)” value amounted to 0.0132.

Consider “TCTGTTCCATGGACCGGTTTTCCCGGTAATCCGTATTTGAG (site TCTGTTCCTCT)”, for which the “recombinant UMI read abundance (log10)” value is 0.0103.

Regarding “TCTTAAACATGGACCGGTTTTCCCGGTAATCCGTATTTGCA (site TCTTAAACTTG)”, the “recombinant UMI read abundance (log10)” value is 0.

On to “TCTTACACATGGACCGGTTTTCCCGGTAATCCGTATTTGCC (site TCTTACACTGG)”, for which the “recombinant UMI read abundance (log10)” value was 0.565.

In the case of “TCTTCAGCATGGACCGGTTTTCCCGGTAATCCGTATTTGTG (site TCTTCAGCTCA)”, the “recombinant UMI read abundance (log10)” value came to 0.0132.

As for “TCTTCATCATGGACCGGTTTTCCCGGTAATCCGTATTTGTA (site TCTTCATCTTA)”, the “recombinant UMI read abundance (log10)” value is 0.00251.

On to “TCTTTCTCATGGACCGGTTTTCCCGGTAATCCGTATTTGCT (site TCTTTCTCTAG)”, for which the “recombinant UMI read abundance (log10)” value stood at 0.

With “TGAAAATCATGGACCGGTTTTCCCGGTAATCCGTATTTGTG (site TGAAAATCTCA)”, the “recombinant UMI read abundance (log10)” value stood at 1.

As for “TGAAGGACATGGACCGGTTTTCCCGGTAATCCGTATTTGAC (site TGAAGGACTGT)”, the “recombinant UMI read abundance (log10)” value was 2.4.

In the case of “TGAATAACATGGACCGGTTTTCCCGGTAATCCGTATTTGCA (site TGAATAACTTG)”, the “recombinant UMI read abundance (log10)” value was determined as 1.38.

“TGACCGACATGGACCGGTTTTCCCGGTAATCCGTATTTGAT (site TGACCGACTAT)”: the “recombinant UMI read abundance (log10)” value is 0.561.

“TGAGAGACATGGACCGGTTTTCCCGGTAATCCGTATTTGCG (site TAAGAGACTCG)”: the “recombinant UMI read abundance (log10)” value amounted to 2.07.

On to “TGAGAGACATGGACCGGTTTTCCCGGTAATCCGTATTTGCG (site TCAGAGACTCG)”, for which the “recombinant UMI read abundance (log10)” value is 0.426.

In the case of “TGAGAGACATGGACCGGTTTTCCCGGTAATCCGTATTTGCG (site TGAGAGACTCG)”, the “recombinant UMI read abundance (log10)” value is 2.22.

On to “TGAGAGACATGGACCGGTTTTCCCGGTAATCCGTATTTGCG (site TTAGAGACTCG)”, for which the “recombinant UMI read abundance (log10)” value was found to be 1.19.

Turning to “TGAGGTGCATGGACCGGTTTTCCCGGTAATCCGTATTTGGT (site TGAGGTGCTAC)”, the “recombinant UMI read abundance (log10)” value was 0.98.

On to “TGAGGTTCATGGACCGGTTTTCCCGGTAATCCGTATTTGAC (site TGAGGTTCTGT)”, for which the “recombinant UMI read abundance (log10)” value came out at 2.17.

As to “TGAGTCGCATGGACCGGTTTTCCCGGTAATCCGTATTTGTG (site TGAGTCGCTCA)”, the “recombinant UMI read abundance (log10)” value is 0.474.

As to “TGATAATCATGGACCGGTTTTCCCGGTAATCCGTATTTGCT (site CGATCATCTAG)”, the “recombinant UMI read abundance (log10)” value amounted to 0.

“TGATAATCATGGACCGGTTTTCCCGGTAATCCGTATTTGCT (site TGATAATCTAG)”: the “recombinant UMI read abundance (log10)” value came out at 2.45.

As for “TGATTCCCATGGACCGGTTTTCCCGGTAATCCGTATTTGAC (site TGATTCCCTGT)”, the “recombinant UMI read abundance (log10)” value was 0.794.

For “TGCAAGGCATGGACCGGTTTTCCCGGTAATCCGTATTTGGT (site TGCAAGGCTAC)”, the “recombinant UMI read abundance (log10)” value stood at 0.43.

In the case of “TGCAAGGCATGGACCGGTTTTCCCGGTAATCCGTATTTGGT (site TGCCAGGCTAC)”, the “recombinant UMI read abundance (log10)” value came to 0.0164.
